One assay deals with L1210. Kind of assay: In vitro inhibition of L1210 murine leukemia (Drug sensitivity was determined by counting surviving cells after 48 hr of continuous exposure to at least 4 conc. of drug). Particulars: Mus musculus, L1210, 48 h. The assay is classed as functional, cell-based.
For a further assay, the system named is Mus musculus. As to the kind of experiment: In vivo inhibition of L1210 murine leukemia, expressed as optimal non toxic dose (CD2F1 mice were given an injection of […] i.p. and treated on day 1). The assay is classed as functional.

Molecules are shown by their SMILES.

Consider `Cl.Cn1cc(NC(=O)c2cc(NC(=O)c3cc(NC(=O)c4cc(NC(=O)c5ccc(N(CCCl)CCCl)cc5)nn4C)cn3C)cn2C)cc1C(=O)NCCC(=N)N`, for which the IC50 (as a rule, the point on the concentration scale where inhibition reaches its midpoint) with L1210 worked out at 0.0291 µg/mL. Further, in the assay with Mus musculus, the OD is 3.13 mg/kg.

In the assay with L1210, `Cl.Cn1cc(NC(=O)c2cc(NC(=O)c3cc(NC(=O)c4nc(NC(=O)c5ccc(N(CCCl)CCCl)cc5)cn4C)cn3C)cn2C)cc1C(=O)NCCC(=N)N` gave an IC50 of 2 µg/mL. This compound also returned an OD with Mus musculus of 6.25 mg/kg.

On to `C=C(Br)C(=O)Nc1cc(C(=O)Nc2cc(C(=O)Nc3cc(C(=O)Nc4cc(C(=O)NCCC(=N)N)n(C)c4)n(C)c3)n(C)c2)n(C)n1.Cl`, for which the OD with Mus musculus was 6.25 mg/kg.

Regarding `C=C(Br)C(=O)Nc1cn(C)c(C(=O)Nc2cc(C(=O)Nc3cc(C(=O)Nc4cc(C(=O)NCCC(=N)N)n(C)c4)n(C)c3)n(C)c2)n1.Cl`, the OD in the assay on Mus musculus was found to be 6.25 mg/kg.

In the case of `Cl.Cn1cc(NC(=O)c2cc(NC(=O)c3cc(NC(=O)c4ccc(N(CCCl)CCCl)cc4)cn3C)cn2C)cc1C(=O)NCCC(=N)N` [TALLIMUSTINE CHLORIDE], in the assay with Mus musculus, the OD was determined as 3.13 mg/kg.

(Values after ChEMBL document CHEMBL1149967, “Synthesis and antitumor activity of novel distamycin derivatives” (Bioorg Med Chem Lett, 1996).)
